Values joined by “and” are separate entries in the source; they are usually repeats but may differ in a detail not shown here. Equal values may be shown once. “Also recorded” adds a separate entry of the source. Read-outs that look alike come from different tables or passages of the source.
Experiments:
[1] = test system: rats receiving A53T αSYN; test: Cylinder test of forelimb asymmetry in AAV1/2 A53T αSYN rat model of PD; format: in vivo, Sprague-Dawley rats; details: Day 42, 2.67 g/kg, once per day p.o.
Procedure: Thirty female, Sprague-Dawley rats (280-325 g) split into 5 groups (N=4-8 rats/group) and received a unilateral injection in to the substantia nigra (at co-ordinates AP −5.2 mm; ML −2 mm relative to Bregma, DV −7.5 mm relative to skull over SN) of AAV1/2 delivering A53T alpha-synuclein (AAV1/2 αSYN) or empty vector (control). The A53T αSyn expressed is of the human sequence. Its control is an empty AAV1/2 vector of the same serotype and viral construction. Both AAV1/2 vectors were diluted in sterile phosphate buffered saline and administered at a volume of 2 μl. […]
Animal behavior was assessed pre-surgery and at 3 and 6 weeks post-surgery. Behaviour was assessed by the cylinder test to assess forelimb asymmetry with asymmetry indicating an imbalance in striatal dopaminergic function between the side injected with AAV1/2 αSYN and the contralateral side. […] Striatal tissue from both hemispheres was collected and analysed for dopamine levels. Substantia nigra tissue was collected and analysed for the number of TH^+ve cells and the amount of A53T αSYN measured. Plasma and brain (cerebellum) samples were collected and trehalose levels analysed by LC-MS/MS.

[2] = Plasma and brain trehalose levels 30 min post-dose in rat efficacy study (LC-MS/MS); format: in vivo, Sprague-Dawley rats; details: rats; for concentration at 30 min: Sprague-Dawley, rat
Procedure: Animal behavior was assessed pre-surgery and at 3 and 6 weeks post-surgery. Behaviour was assessed by the cylinder test to assess forelimb asymmetry with asymmetry indicating an imbalance in striatal dopaminergic function between the side injected with AAV1/2 αSYN and the contralateral side. Compounds that normalize the forelimb asymmetry are potentially useful for treating PD. After 6 weeks of trehalose treatment, the animals were killed approximately 30 mins after the last administration of trehalose. Striatal tissue from both hemispheres was collected and analysed for dopamine levels. Substantia nigra tissue was collected and analysed for the number of TH^+ve cells and the amount of A53T αSYN measured. Plasma and brain (cerebellum) samples were collected and trehalose levels analysed by LC-MS/MS.
When the animals were killed 30 mins post trehalose administration plasma and brain samples were collected (rats in the 0.89 g/kg/day group only received one dose of trehalose (0.89 g/kg) on this day). This time corresponds to approximately the Tmax of orally administered trehalose. […] Trehalose was measurable in the plasma 30 mins after receiving trehalose (0.89 or 2.67 g/kg) by oral gavage (Table 5). A 3-fold increase in the trehalose dose (0.89 g/kg to 2.67 g/kg) lead to an ˜6-fold increase in the trehalose plasma level, i.e. that increasing the dose produced a greater than dose-proportional increase in trehalose exposure. […] Trehalose was measurable in the brains of rats receiving trehalose (2.67 g/kg) by oral gavage (Table 5).
To better understand why administrating the same amount of trehalose by different routes led to differences in efficacy, studies were conducted to measure blood and brain levels of trehalose following administration of trehalose by 2% in the drinking water, three (3) times daily (0.89 g/kg each dose) and once daily (2.67 g/kg/day).

[3] = Plasma and brain pharmacokinetics in rats, 1 and 7 days oral administration; format: in vivo, Sprague-Dawley rats; details: for AUC(0-t): read-out: AUC0-12h
Procedure: One hundred Sprague-Dawley rats (200-260 g), female (60) and male (40), received trehalose (2.67 g/kg/day, oral gavage in sterile water) for 1 or 7 days. Groups of 5 rats (3 female, 2 male) were sacrificed at pre-dose and 15 min, 30 min, 1 h, 1.5 h, 2 h, 3 h, 4 h, 8 h and 12 h post-dose on days 1 and 7 and plasma and brain samples collected. Plasma and brain samples were analysed for trehalose levels using a validated LC-MS/MS method and plasma exposure timecourses (FIG. 1) and pharmacokinetic parameters were calculated (Table 6). Brain levels of trehalose were approximately 1% of plasma levels at all time-points (FIG. 1).

[4] = Brain and CSF trehalose levels in macaques after two days administration; format: in vivo; details: female, macaque, oral; for concentration at 1 h: 2.67 g/kg for two days
Procedure: In a subsequent step, the same 3 macaques were administered trehalose (2.67 g/kg) for two days. The macaques were then killed 1 h post-administration on day 2 and terminal brain and CSF samples collected. The brain and CSF trehalose levels were 81.3±13.8 ng/g and 562±346.5 ng/ml respectively. Similar to rats, trehalose levels in macaque brain tissue were ˜1% of the plasma level at the corresponding timepoint.

[5] = Extrapolation from animal data to human plasma exposure; details: oral, humans, 2.67 g/kg, extrapolated from rat and macaque data, read-out: trehalose plasma Cmax (estimated)
Procedure: On a dose per body weight basis, trehalose produced very similar plasma and brain levels in rats and macaques (see FIG. 3 and Tables 6 and 7) when dosed with 2.67 g/kg/day. We also know that a trehalose dose of 2.67 g/kg/day was efficacious in the rat and non-human primate. Therefore, it is contemplated that an efficacious dose for humans includes 2.67 g/kg which is estimated to produce a trehalose plasma Cmax of ˜10000 ng/ml. From the rat data it is also clear that a dose of 0.89 g/kg will be ineffective.

[6] = test system: Rotenone-lesioned rat; details: 2% trehalose in drinking water; Wu et al. 2015; cited from earlier work
[7] = test system: AAV α-synuclein rat; details: 2 and 5% in drinking water; He et al. 2015; cited from earlier work
[8] = test system: Chronic MPTP-lesioned mouse; details: 1% in the drinking water; Ferguson et al. 2015; cited from earlier work
[9] = both sexes, Sprague-Dawley, po, rat brain, Day 1, 2.67 g/kg p.o.
[10] = both sexes, Sprague-Dawley, po, rat brain, Day 7, 2.67 g/kg/day p.o.
[11] = both sexes, Sprague-Dawley, po, rat plasma, Day 1, 2.67 g/kg p.o.
[12] = both sexes, Sprague-Dawley, po, rat plasma, Day 7, 2.67 g/kg/day p.o.

OC[C@H]1O[C@H](O[C@H]2O[C@H](CO)[C@@H](O)[C@H](O)[C@H]2O)[C@H](O)[C@@H](O)[C@@H]1O [trehalose, (2R,3S,4S,5R,6R)-2-(Hydroxymethyl)-6-[(2R,3R,4S,5S,6R)-3,4,5-trihydroxy-6-(hydroxymethyl)oxan-2-yl]oxyoxane-3,4,5-triol]
% asymmetry (mean ± s.e.mean) [1]: reduced the asymmetry
concentration at 30 min ([2]; brain (cerebellum), cerebellum, 2.67 g/kg once daily oral gavage, 30 min post-dose, read-out: Brain trehalose level): 52.8 ± 16.9 ng/mL
concentration at 30 min ([2]; plasma, 0.89 g/kg 3 times daily oral gavage, 30 min after one 0.89 g/kg dose, read-out: Plasma trehalose level): 1130 ± 178 ng/mL
concentration at 30 min ([2]; plasma, 2.67 g/kg once daily oral gavage, 30 min post-dose, read-out: Plasma trehalose level): 6380 ± 890 ng/mL
Brain trehalose level ([2]; cerebellum, 0.89 g/kg 3 times daily oral gavage, 30 min after one 0.89 g/kg dose): below the limit of detection and BLQ
Brain trehalose level ([2]; cerebellum, 2% in drinking water): below the limit of detection and BLQ
Brain trehalose level ([2]; cerebellum, 2.67 g/kg once daily oral gavage, 30 min post-dose): measurable
Plasma trehalose level ([2]; 0.89 g/kg 3 times daily oral gavage, 30 min after one 0.89 g/kg dose): measurable
increase in trehalose plasma level on 3-fold increase in dose ([2]; 0.89 g/kg to 2.67 g/kg, 30 min post-dose): 6 fold and 5.6 fold
Plasma trehalose level ([2]; 2% in drinking water, 6 weeks): below the limit of quantification and BLQ
Plasma trehalose level ([2]; 2.67 g/kg once daily oral gavage, 30 min post-dose): measurable
AUC(0-inf) [3, 9]: 97 ng·h/mL
Cmax [3, 9]: 87 ng/mL
Tmax [3, 9]: 15 min
half-life [3, 9]: 48.6 min
AUC(0-t) [3, 9]: 86.8 ng·h/mL
AUC(0-inf) [3, 10]: 76.2 ng·h/mL
Cmax [3, 10]: 73 ng/mL
Tmax [3, 10]: 15 min
half-life [3, 10]: 63.6 min
AUC(0-t) [3, 10]: 65.3 ng·h/mL
AUC(0-inf) [3, 11]: 11100 ng·h/mL
Cmax [3, 11]: 8900 ng/mL
Tmax [3, 11]: 15 min
half-life [3, 11]: 45.6 min
AUC(0-t) [3, 11]: 10900 ng·h/mL
AUC(0-inf) [3, 12]: 9880 ng·h/mL
Cmax [3, 12]: 8340 ng/mL
Tmax [3, 12]: 15 min
half-life [3, 12]: 53.4 min
AUC(0-t) [3, 12]: 9490 ng·h/mL
Kp ([3]; both sexes, Sprague-Dawley, rat, brain, po, rats, 2.67 g/kg/day p.o., all time-points, read-out: Brain levels of trehalose as % of plasma levels): ~0.01
trehalose in plasma or brain 8 h post-dose ([3]; rats, 2.67 g/kg/day p.o., 8 h post-dose): no longer detectable; also recorded: No trehalose is found
concentration at 1 h ([4]; CSF, 1 h post-administration on day 2, read-out: CSF trehalose level): 562 ± 346 ng/mL
concentration at 1 h ([4]; brain, 1 h post-administration on day 2, read-out: brain trehalose level): 81.3 ± 13.8 ng/g
Kp at 1 h ([4]; brain, 2.67 g/kg, corresponding timepoint (1 h), read-out: brain trehalose level as % of plasma level): ~0.01
Cmax [5]: ~10000 ng/mL
Effect [6]: Neuroprotection
Effect [7]: Neuroprotection
Effect (behavioural) [8]: No behavioural
Effect on dopamine levels [8]: effect. Some

Reference: US10736909B2, “Use of trehalose for treatment of neurological diseases” (JUNAXO, INC., priority 2016, dated 2020)
